Assays:
REMICADE® [1] = assay: Monomer content of […]® solutions by size exclusion chromatography; format: physicochemical; conditions: 0.25M agent
Description: Biophysical properties of solutions of […]® formulated with 0.25 M CSAA were assessed over 90 days. Samples of […]® formulated with 0.25 M CSAA were prepared as described in Example 1 above.
(§1) Following reconstitution, the viscosity of each solution was measured using the microfluidic viscometer as described in previous examples. The solutions were then back-loaded into 1 mL BD insulin syringes with 27, 29, or 31 gauge fixed needles. The force required to extrude the concentrated […]® solutions was then measured using an Instron at a rate of displacement equivalent to a fluid flow rate of 3 mL/min. The expelled solution was collected from the syringe and analyzed by size-exclusion chromatography.

biosimilar ERBITUX® = assay: Viscosity of aqueous solutions of biosimilar ERBITUX® with viscosity-lowering agents; conditions: for Viscosity / Fold Reduction: pH 7.0, 0.25M agent; for Fold Reduction: vs phosphate buffer
Description: All viscosities of well-mixed aqueous mAb solutions were measured using either a mVROC microfluidic viscometer (RheoSense) or a DV2T cone and plate viscometer (Brookfield; “C & P”) after a 5 minute equilibration at 25° C. (unless otherwise indicated). The mVROC viscometer was equipped with an “A” or “B” chip, each manufactured with a 50 micron channel. Typically, 0.10 mL of protein solution was back-loaded into a gastight microlab instrument syringe (Hamilton; 100 μL), affixed to the chip, and measured at multiple flow rates, approximately 20%, 40%, and 60% of the maximum pressure for each chip. […] An average absolute viscosity and standard deviation was then calculated from at least these three measurements. The C & P viscometer was equipped with a CPE40 or CPE52 spindle (cone angle of 0.8° and 3.0°, respectively) and 0.50 mL samples were measured at multiple shear rates between 2 and 400 s^−1. […] An extrapolated zero-shear viscosity was then determined from a plot of dynamic viscosity versus shear rate for the samples measured on a DV2T cone and plate viscometer. The extrapolated zero-shear viscosities reported are the average and standard deviation of at least three measurements.
First, Polysorbate 80 was removed using DETERGENT-OUT® TWEEN® Medi Columns (G-Biosciences). […] The collected protein solution was freeze-dried. The dried protein cakes, containing protein and buffer salts or agent, were reconstituted to a final volume of 0.15-1.3 mL. […] Reported protein concentrations represent the range of all protein samples included in each Table or Figure. Specifically, reported values are the median plus or minus half the range. Extrapolated zero-shear using an experimentally determined extinction coefficient of 1.4 L/g·cm and viscosities reported were measured on a DV2T cone and plate viscometer.
The final concentration of CSAL upon reconstitution in an aqueous CSAL solution ranged from 0.25 M to 0.50 M.
Specifically, 20 mM solutions of the viscosity-lowering agents of interest were used for buffer exchange, and the lyophilized cakes were reconstituted to 0.25 M of each viscosity-lowering agent. […] The sample was first aliquoted. […] The dried protein cakes, containing protein and viscosity-lowering agent (and a negligible amount of buffer salts) were reconstituted to a final volume of approximately 0.10 mL and viscosity-lowering agent concentration as previously described.
First, Polysorbate was removed from the commercially obtained mAb solutions.
Specifically, 20 mM solutions of the salts of interest were used for buffer exchange, and the lyophilized cakes were reconstituted to contain 0.25 M of each agent. Viscosities were measured using either a RheoSense mVROC microfluidic viscometer equipped with an “A” or “B” chip or a DV2T cone and plate viscometer.
Subsequently, the aqueous drug product was purified, buffer exchanged, concentrated, dried, reconstituted, and analyzed as described in the same manner. Viscosities reported were measured on a RheoSense mVROC microfluidic viscometer.

Sprague-Dawley rats = assay: Subcutaneous injection toxicity and irritation (Draize evaluation scores); format: in vivo, rat; conditions: 0.5 mL of 0.25 M CSAA subcutaneously, 1 to 3 daily injections
Description: Thirty 11-week old Sprague-Dawley rats were separated into 6 groups of 5 rats each (3 saline control groups and 3 CSAA groups). The rats were injected subcutaneously with 0.5 mL of either endotoxin-free phosphate-buffered saline or endotoxin-free 0.25 M CSAA according to the following schedule: One group from each condition was injected once on day 1 and then sacrificed […]; one group from each condition was injected once on day 1 and once on day 2 and then sacrificed 24 hours after the second injection; and one group from each condition was injected once on day 1, once on day 2, and once on day 3, and then sacrificed 24 hours after the third injection.
Clinical observations were recorded for any pharmaco-toxicological signs pre-dose, immediately post-dose, at 1 and 4 hours (±15 minutes) post-dose, and daily thereafter. Irritation, if any, at injection sites was scored using the Draize evaluation scores pre-dose, immediately post-dose, at 1 hour (±15 minutes) post dose, and prior to sacrifice.

REMICADE® [2] = assay: Monomer content of […]® solutions by size exclusion chromatography; format: physicochemical; conditions: storage at room temperature, CSAA sample: REMICADE 219 mg/mL, pH 7, 0.25M CSAA
HERCEPTIN® = assay: Viscosity of aqueous solutions of HERCEPTIN® with viscosity-lowering agents; format: physicochemical; conditions: 0.25M salt, 25° C., pH 7.0
Description: All viscosities of well-mixed aqueous mAb solutions were measured using either a mVROC microfluidic viscometer (RheoSense) or a DV2T cone and plate viscometer (Brookfield; “C & P”) after a 5 minute equilibration at 25° C. (unless otherwise indicated). The mVROC viscometer was equipped with an “A” or “B” chip, each manufactured with a 50 micron channel. Typically, 0.10 mL of protein solution was back-loaded into a gastight microlab instrument syringe (Hamilton; 100 μL), affixed to the chip, and measured at multiple flow rates, approximately 20%, 40%, and 60% of the maximum pressure for each chip. […] An average absolute viscosity and standard deviation was then calculated from at least these three measurements. The C & P viscometer was equipped with a CPE40 or CPE52 spindle (cone angle of 0.8° and 3.0°, respectively) and 0.50 mL samples were measured at multiple shear rates between 2 and 400 s^−1. Specifically, samples were measured for 30 seconds each at 22.58, 24.38, 26.25, 28.13, 30, 31.88, 45, 67.5, 90, 112.5, 135, 157.5, 180, 202.5, 247, 270, 292.5, 315, 337.5, 360, 382, 400 s^−1, starting at a shear rate that gave at least 10% torque, and continuing until instrument torque reached 100%. An extrapolated zero-shear viscosity was then determined from a plot of dynamic viscosity versus shear rate for the samples measured on a DV2T cone and plate viscometer. The extrapolated zero-shear viscosities reported are the average and standard deviation of at least three measurements.
(§3) Viscosities were measured using a RheoSense mVROC microfluidic viscometer equipped with an “A” or “B” chip.
Viscosities reported were measured on a RheoSense mVROC microfluidic viscometer.

antigen = assay: Antigen binding, […]®-specific ELISA assay; conditions: storage at room temperature, CSAA sample: REMICADE 219 mg/mL, pH 7, 0.25M CSAA
Description: Biophysical properties of solutions of […]® formulated with 0.25 M CSAA were assessed over 90 days. Samples of […]® formulated with 0.25 M CSAA were prepared as described in Example 1 above. […] (Table 20). Additionally, antigen binding of this processed […]® protein was measured with a […]®-specific ELISA assay and no decrease in binding was seen between days 0 and […] (Table 20).

biosimilar AVASTIN® = assay: Viscosity of aqueous solutions of biosimilar AVASTIN® with viscosity-lowering agents; format: physicochemical
ARZERRA® = assay: Viscosity of aqueous solutions of ARZERRA® with viscosity-lowering agents; format: physicochemical; conditions: 274 ± 10 mg/mL ARZERRA; 0.25M agent; 25° C., pH 7.0
Description: (§2) (unless otherwise indicated).

REMICADE® [3] = assay: Syringe extrusion force of concentrated […]® solutions (Instron); format: physicochemical; conditions: 1 mL BD insulin syringe, 3 mL/min, REMICADE 224-230 mg/mL, 0.25M agent
Description: as §1

TYSABRI® = assay: Viscosity of aqueous solutions of TYSABRI® with viscosity-lowering agents; format: physicochemical; conditions: 0.25M agent, 25° C., pH 7.0
REMICADE® [4] = assay: Viscosity of aqueous solutions of […]® with viscosity-lowering agents; format: physicochemical
VECTIBIX® = assay: Viscosity of aqueous solutions of VECTIBIX® with viscosity-lowering agents; format: physicochemical; conditions: 0.25M agent, 25° C., pH 7.0
Description: as §2

biosimilar RITUXAN® = assay: Viscosity of aqueous solutions of biosimilar RITUXAN® with viscosity-lowering agents; conditions: 202 ± 2 mg/mL RITUXAN; 0.25M agent; 25° C., pH 7.0;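 also: absolute viscosity of aqueous antibody solutions determined by microfluidic viscometry (mVROC chip, 50 micron channel) at several flow rates after 5 min equilibration, mean of at least three readings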
Description: All viscosities of well-mixed aqueous mAb solutions were measured using either a mVROC microfluidic viscometer (RheoSense) or a DV2T cone and plate viscometer (Brookfield; “C & P”) after a 5 minute equilibration at 25° C. […] The mVROC viscometer was equipped with an “A” or “B” chip, each manufactured with a 50 micron channel. Typically, 0.10 mL of protein solution was back-loaded into a gastight microlab instrument syringe (Hamilton; 100 μL), affixed to the chip, and measured at multiple flow rates, approximately 20%, 40%, and 60% of the maximum pressure for each chip. […] An average absolute viscosity and standard deviation was then calculated from at least these three measurements. The C & P viscometer was equipped with a CPE40 or CPE52 spindle (cone angle of 0.8° and 3.0°, respectively) and 0.50 mL samples were measured at multiple shear rates between 2 and 400 s^−1. […] An extrapolated zero-shear viscosity was then determined from a plot of dynamic viscosity versus shear rate for the samples measured on a DV2T cone and plate viscometer. The extrapolated zero-shear viscosities reported are the average and standard deviation of at least three measurements.
as §3

camphorsulfonic acid arginine [CSAA]
% Monomer (REMICADE® [1]; expelled through 27 gauge needle, REMICADE 224-230 mg/mL (per agent)): 99.5 ± 0.1%
% Monomer (REMICADE® [1]; expelled through 29 gauge needle, REMICADE 224-230 mg/mL (per agent)): 99.4 ± 0.2%
% Monomer (REMICADE® [1]; expelled through 31 gauge needle, REMICADE 224-230 mg/mL (per agent)): 99.5 ± 0.2%
% Monomer (REMICADE® [1]; pre-syringe, REMICADE 220-230 mg/mL (per agent)): 99.7 ± 0.3%
pH of viscosity minimum (biosimilar ERBITUX®; 0.25 M CSAA, 202±5, 229±5, 253±4 mg/mL mAb, 25° C., FIG. 5): ~7.0
Viscosity (biosimilar ERBITUX®; 222 ± 5 mg/mL mAb, 25° C.): 52.5 ± 1.0 cP
Viscosity (biosimilar ERBITUX®; 225 ± 5 mg/mL mAb, 20° C.): 79.6 ± 0.9 cP
Viscosity (biosimilar ERBITUX®; 225 ± 5 mg/mL mAb, 25° C.): 58.0 ± 0.3 cP
Viscosity (biosimilar ERBITUX®; 225 ± 5 mg/mL mAb, 30° C.): 46.9 ± 0.6 cP
Fold Reduction (biosimilar ERBITUX®; 222 ± 5 mg/mL mAb, 25° C.): 21.5 fold
Fold Reduction (biosimilar ERBITUX®; 222 ± 5 mg/mL mAb, 25° C., listed as CSA Arginine): 21.5 fold
Microscopic examination of injection sites (Sprague-Dawley rats; no longer evident by day 4): very minor, clinically insignificant, irritative effect
Observed consequences of the injections compared with saline (Sprague-Dawley rats; throughout the study): macroscopically similar
Edema scores (Draize) at injection sites (Sprague-Dawley rats; various time points): 0-2
% Monomer (REMICADE® [2]; day 0): 99.9 ± 0.1%
% Monomer (REMICADE® [2]; day 4): 97.9 ± 0%
% Monomer (REMICADE® [2]; day 7): 100 ± 0%
Viscosity (HERCEPTIN®; 216 ± 0 mg/mL HERCEPTIN): 55.7 ± 2.3 cP
Viscosity (HERCEPTIN®; 254 ± 3 mg/mL HERCEPTIN): 78.0 ± 8.7 cP
Viscosity (HERCEPTIN®; 270 ± 6 mg/mL HERCEPTIN): 96.7 ± 4.7 cP
% binding (normalized to drug product) (antigen; day 0): 88.6 ± 5.2%
% binding (normalized to drug product) (antigen; day 7): 114 ± 2.4%
Viscosity (biosimilar AVASTIN®; 200 ± 5 mg/mL mAb, pH 7.0, 25° C., [Salt] 0.25 M of anion, C & P viscometer): 48.5 ± 1.9 cP
pH of minimum viscosity and maximum viscosity-lowering effect (biosimilar AVASTIN®; 200±9 mg/mL mAb, 0.25 M CSAA, FIG. 3): ~7
Viscosity (biosimilar AVASTIN®; 228 ± 5 mg/mL mAb, agent 0.25 M, 25° C., pH 7.0): 116 ± 2 cP
Viscosity (ARZERRA®): 125 ± 7 cP
Syringe Force (REMICADE® [3]; 27 gauge needle): 18.4 N
Syringe Force (REMICADE® [3]; 29 gauge needle): 24.9 N
Syringe Force (REMICADE® [3]; 31 gauge needle): 33.0 N
Viscosity (TYSABRI®; 237 ± 4 mg/mL TYSABRI): 47.1 ± 2.1 cP
Viscosity (TYSABRI®; 276 ± 8 mg/mL TYSABRI): 92.9 ± 2.6 cP
Viscosity (REMICADE® [4]; 128 mg/mL REMICADE, isotonic (0.3 molal) excipient): 25.8 ± 0.8 cP
Viscosity reduction (REMICADE® [4]; 0.25M agent vs PB, Table 17): about 29 fold
Viscosity (REMICADE® [4]; 166 ± 4 mg/mL REMICADE, 0.25M agent, 25° C., pH 7.0): 19.1 ± 0.2 cP
Viscosity (REMICADE® [4]; 215 ± 5 mg/mL REMICADE, [CSAA] 0 M, 25° C., pH 7.0): 1557 ± 22 cP
Viscosity (REMICADE® [4]; 215 ± 5 mg/mL REMICADE, [CSAA] 0.20 M, 25° C., pH 7.0): 81.3 ± 1.0 cP
Viscosity (REMICADE® [4]; 215 ± 5 mg/mL REMICADE, [CSAA] 0.25 M, 25° C., pH 7.0): 53.7 ± 9.3 cP
Viscosity (REMICADE® [4]; 215 ± 5 mg/mL REMICADE, [CSAA] 0.35 M, 25° C., pH 7.0): 38.2 ± 0.9 cP
Viscosity (REMICADE® [4]; 222 ± 6 mg/mL REMICADE, 0.25M agent, 25° C., pH 7.0): 53.7 ± 9.3 cP
Viscosity (VECTIBIX®; 264 mg/mL VECTIBIX): 44.3 ± 2.3 cP
Viscosity (VECTIBIX®; 233 ± 4 mg/mL VECTIBIX): 26.2 ± 6.5 cP
Viscosity (VECTIBIX®; 252 ± 3 mg/mL VECTIBIX): 27.4 ± 1.2 cP
Viscosity (VECTIBIX®; 291 ± 3 mg/mL VECTIBIX): 162 ± 1 cP
Viscosity (biosimilar RITUXAN®): 78.4 ± 0.3
